Measurements as given in patent US11053213B2, “Pharmaceutical compounds” (ALMAC DISCOVERY LIMITED, priority 2016, dated 2021).

Columns and labels:
USP19 = USP19 (Homo sapiens (Human), UniProt O94966); experiment: USP19 activity assay (fluorescence polarisation, Ubiquitin-Lys-TAMRA substrate); format: biochemical; settings: full-length USP19 2.5 nM, 30 min pre-incubation, Ub substrate 500 nM; average of at least two duplicate experiments
[1] = system: panel of DUBs (24 USPs and 19 other DUBs); experiment: Selectivity profile against a panel of DUBs (Ub-Rh110 substrate, Ubiquigent); format: biochemical; settings: fixed concentration of 100 μM
Description: FIG. 1 Overall selectivity profile of Example 124 against a panel of DUBs. Included in this screen were 24 USPs and 19 other DUBs (as indicated). Example 124 was screened at a fixed concentration of 100 μM using the Ub-Rh110 substrate (Ubiquigent). Residual activity is shown on the y-axis normalised to the no compound (DMSO) control.

Sequence of USP19 (O94966 whole entry): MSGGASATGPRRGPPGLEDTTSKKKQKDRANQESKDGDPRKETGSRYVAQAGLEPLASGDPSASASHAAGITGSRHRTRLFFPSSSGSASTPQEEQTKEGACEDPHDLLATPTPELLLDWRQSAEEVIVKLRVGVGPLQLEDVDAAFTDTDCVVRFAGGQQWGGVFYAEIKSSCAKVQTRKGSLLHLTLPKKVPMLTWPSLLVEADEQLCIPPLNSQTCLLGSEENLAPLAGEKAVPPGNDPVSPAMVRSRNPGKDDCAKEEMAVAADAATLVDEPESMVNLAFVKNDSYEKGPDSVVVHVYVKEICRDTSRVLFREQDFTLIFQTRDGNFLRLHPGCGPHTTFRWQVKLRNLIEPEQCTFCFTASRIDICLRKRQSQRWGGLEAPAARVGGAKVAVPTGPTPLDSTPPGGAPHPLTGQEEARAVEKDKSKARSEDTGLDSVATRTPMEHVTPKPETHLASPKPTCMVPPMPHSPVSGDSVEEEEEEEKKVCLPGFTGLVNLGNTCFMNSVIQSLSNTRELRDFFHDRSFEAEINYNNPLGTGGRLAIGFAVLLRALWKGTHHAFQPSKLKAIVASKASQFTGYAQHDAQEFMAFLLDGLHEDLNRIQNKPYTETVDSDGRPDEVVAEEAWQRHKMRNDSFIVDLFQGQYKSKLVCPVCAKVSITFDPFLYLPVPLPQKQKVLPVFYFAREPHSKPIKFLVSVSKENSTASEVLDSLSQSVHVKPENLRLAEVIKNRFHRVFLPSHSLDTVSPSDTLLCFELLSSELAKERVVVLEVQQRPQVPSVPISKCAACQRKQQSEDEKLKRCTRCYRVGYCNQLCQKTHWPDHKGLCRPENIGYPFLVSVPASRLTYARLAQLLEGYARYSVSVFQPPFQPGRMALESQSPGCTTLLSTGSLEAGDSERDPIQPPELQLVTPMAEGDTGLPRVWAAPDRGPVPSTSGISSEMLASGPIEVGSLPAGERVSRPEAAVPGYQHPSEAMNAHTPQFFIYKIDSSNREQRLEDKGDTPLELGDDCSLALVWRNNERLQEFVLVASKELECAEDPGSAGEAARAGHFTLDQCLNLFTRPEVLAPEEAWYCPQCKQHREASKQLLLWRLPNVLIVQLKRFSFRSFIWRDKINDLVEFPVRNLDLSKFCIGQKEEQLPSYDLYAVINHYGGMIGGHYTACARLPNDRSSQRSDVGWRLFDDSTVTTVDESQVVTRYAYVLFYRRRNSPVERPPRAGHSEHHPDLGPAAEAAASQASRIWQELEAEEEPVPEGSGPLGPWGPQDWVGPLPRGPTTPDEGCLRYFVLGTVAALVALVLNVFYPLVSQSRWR

IC50 (USP19) | SMILES | Overall selectivity profile (residual activity normalised to DMSO control) [1]
< 0.5 µM | C[C@H](CC1CCCCC1)C(=O)N1CC[C@@](O)(Cn2cc(C(=O)N3CCNCC3)c(-c3ccccc3)cc2=O)C(C)(C)C1 [Example 124, 1-(((S)-1-((R)-3-Cyclohexyl-2-methylpropanoyl)-4-hydroxy-3,3-dimethylpiperidin-4-yl)methyl)-4-phenyl-5-(piperazine-1-carbonyl)pyridin-2(1H)-one] | selectivity is demonstrated
0.5 to 5 µM | CCC(CC1CCCCC1)C(=O)N1CCC(O)(Cn2cnc(-c3ccccc3F)cc2=O)C(C)(C)C1 (centres unmarked) [Example 118, 3-((1-(2-(Cyclohexylmethyl)butanoyl)-4-hydroxy-3,3-dimethylpiperidin-4-yl)methyl)-6-(2-fluorophenyl)pyrimidin-4(3H)-one] | 
50 to 250 µM | C[C@H](CC(=O)N1CCC(O)(Cn2cnc(-c3ccccc3OC(F)(F)F)cc2=O)CC1)c1ccccc1 [Example 30, (R)-3-((4-Hydroxy-1-(3-phenylbutanoyl)piperidin-4-yl)methyl)-6-(2-(trifluoromethoxy)phenyl)pyrimidin-4(3H)-one] | 
5 to 50 µM | CC(CC1CCC1)C(=O)N1CCC(O)(Cn2cnc(-c3ccccc3F)cc2=O)CC1 (racemic) [Example 57, (R,S)-3-((1-(3-Cyclobutyl-2-methylpropanoyl)-4-hydroxypiperidin-4-yl)methyl)-6-(2-fluorophenyl)pyrimidin-4(3H)-one] | 
0.5 to 5 µM | CC(C)N(C)C(=O)c1cn(CC2(O)CCN(C(=O)CCC3CCCCC3)CC2)c(=O)cc1-c1ccccc1 [Example 92, 1-((1-(3-Cyclohexylpropanoyl)-4-hydroxypiperidin-4-yl)methyl)-N-isopropyl-N-methyl-6-oxo-4-phenyl-1,6-dihydropyridine-3-carboxamide] | 
< 0.5 µM | COC[C@H](CC1CCCCC1)C(=O)N1CC[C@@](O)(Cn2cc(C(=O)N(C)C)c(-c3ccccc3)cc2=O)C(C)(C)C1 [Example 160, 1-(((S)-1-((S)-3-Cyclohexyl-2-(methoxymethyl)propanoyl)-4-hydroxy-3,3-dimethylpiperidin-4-yl)methyl)-N,N-dimethyl-6-oxo-4-phenyl-1,6-dihydropyridine-3-carboxamide] | 
50 to 250 µM | C[C@H](CC(=O)N1CCC(O)(Cn2ncc(-c3ccccc3)cc2=O)CC1)c1ccccc1 [Example 37, (R)-2-((4-Hydroxy-1-(3-phenylbutanoyl)piperidin-4-yl)methyl)-5-phenylpyridazin-3(2H)-one] | 
< 0.5 µM | C[C@H](CC1CCCCC1)C(=O)N1CCC(O)(Cn2cnc(-c3ccccc3CN)cc2=O)C(C)(C)C1 (stereo partly drawn) [Example 141, 6-(2-(Aminomethyl)phenyl)-3-((1-((R)-3-cyclohexyl-2-methylpropanoyl)-4-hydroxy-3,3-dimethylpiperidin-4-yl)methyl)pyrimidin-4(3H)-one] | 
50 to 250 µM | CC(CN1CCCCC1)C(=O)N1CCC(O)(Cn2cc(C(=O)N(C)C)c(-c3ccccc3)cc2=O)C2(CCCC2)C1 (centres unmarked) [Example 158, 1-((10-Hydroxy-7-(2-methyl-3-(piperidin-1-yl)propanoyl)-7-azaspiro[4.5]decan-10-yl)methyl)-N,N-dimethyl-6-oxo-4-phenyl-1,6-dihydropyridine-3-carboxamide] | 
< 0.5 µM | C[C@H](CC1CCC1)C(=O)N1CC[C@@](O)(Cn2cc(C(=O)N(C)C)c(-c3ccccc3F)cc2=O)C2(CCCC2)C1 [Example 222, 1-(((S)-7-((R)-3-Cyclobutyl-2-methylpropanoyl)-10-hydroxy-7-azaspiro[4.5]decan-10-yl)methyl)-4-(2-fluorophenyl)-N,N-dimethyl-6-oxo-1,6-dihydropyridine-3-carboxamide] | 
0.5 to 5 µM | C[C@H](CC1CCCCC1)C(=O)N1CCC(O)(Cn2cc(C(=O)N3CCCCC3)c(-c3ccccc3)cc2=O)CC1 [Example 36, (R)-1-((1-(3-Cyclohexyl-2-methylpropanoyl)-4-hydroxypiperidin-4-yl)methyl)-4-phenyl-5-(piperidine-1-carbonyl)pyridin-2(1H)-one] | 
50 to 250 µM | C=C(C)c1cc(=O)n(CC2(O)CCN(C(=O)C[C@@H](C)c3ccccc3)CC2)cn1 [Example 29, (R)-3-((4-Hydroxy-1-(3-phenylbutanoyl)piperidin-4-yl)methyl)-6-(prop-1-en-2-yl)pyrimidin-4(3H)-one] | 
< 0.5 µM | C[C@H](CC1CCCCC1)C(=O)N1CCC(O)(Cn2cc(C(=O)N(C)C)c(-c3ccsc3)cc2=O)C2(CCCC2)C1 (stereo partly drawn) [Example 155, 1-((7-((R)-3-Cyclohexyl-2-methylpropanoyl)-10-hydroxy-7-azaspiro[4.5]decan-10-yl)methyl)-N,N-dimethyl-6-oxo-4-(thiophen-3-yl)-1,6-dihydropyridine-3-carboxamide] | 
5 to 50 µM | CN(C)C(=O)c1cn(CC2(O)CCN(C(=O)c3nc(C(F)(F)F)cs3)CC23CCCC3)c(=O)cc1-c1ccccc1 (centres unmarked) [Example 245, 1-((10-Hydroxy-7-(4-(trifluoromethyl)thiazole-2-carbonyl)-7-azaspiro[4.5]decan-10-yl)methyl)-N,N-dimethyl-6-oxo-4-phenyl-1,6-dihydropyridine-3-carboxamide] | 
< 0.5 µM | C[C@H](CC(F)(F)F)C(=O)N1CC[C@@](O)(Cn2cc(C(=O)N3CCNCC3)c(-c3ccccc3)cc2=O)C2(CCCC2)C1 [Example 217, 1-(((S)-10-Hydroxy-7-((R)-4,4,4-trifluoro-2-methylbutanoyl)-7-azaspiro[4.5]decan-10-yl)methyl)-4-phenyl-5-(piperazine-1-carbonyl)pyridin-2(1H)-one] | 
5 to 50 µM | CN(C)C(=O)c1cn(CC2(O)CCN(C(=O)c3cccn3Cc3ccccc3)CC23CCCC3)c(=O)cc1-c1ccccc1 (centres unmarked) [Example 198, 1-((7-(1-Benzyl-1H-pyrrole-2-carbonyl)-10-hydroxy-7-azaspiro[4.5]decan-10-yl)methyl)-N,N-dimethyl-6-oxo-4-phenyl-1,6-dihydropyridine-3-carboxamide] | 
50 to 250 µM | C[C@H](CC(=O)N1CCC(O)(Cn2cc(-c3ccccc3)c(Cl)cc2=O)CC1)c1ccccc1 [Example 10, (R)-4-Chloro-1-((4-hydroxy-1 (3-phenylbutanoyl)piperidin-4-yl)methyl)-5-phenylpyridin-2(1H)-one] | 
5 to 50 µM | C[C@H](CC(=O)N1CCC(O)(Cn2cc(C(=O)N(C)Cc3ccccc3)c(-c3ccccc3)cc2=O)CC1)c1ccccc1 [Example 105, (R)—N-Benzyl-1-((4-hydroxy-1-(3-phenylbutanoyl)piperidin-4-yl)methyl)-N-methyl-6-oxo-4-phenyl-1,6-dihydropyridine-3-carboxamide] | 
5 to 50 µM | O=C(C(O)CC1CCCCC1)N1CCC(O)(Cn2cnc(-c3ccccc3F)cc2=O)CC1 (racemic) [Example 44, (R,S)-3-((1-(3-Cyclohexyl-2-hydroxypropanoyl)-4-hydroxypiperidin-4-yl)methyl)-6-(2-fluorophenyl)pyrimidin-4(3H)-one] | 
0.5 to 5 µM | C[C@H](CC1CCCCC1)C(=O)N1CCC(O)(Cn2cnc(-c3ccc(CN)cc3)cc2=O)C(C)(C)C1 (stereo partly drawn) [Example 140, 6-(4-(Aminomethyl)phenyl)-3-((1-((R)-3-cyclohexyl-2-methylpropanoyl)-4-hydroxy-3,3-dimethylpiperidin-4-yl)methyl)pyrimidin-4(3H)-one] | 
0.5 to 5 µM | CC1(C)CN(C(=O)CCC2CCCCC2)CCC1(O)Cn1cnc(-c2ccccc2F)cc1=O (racemic) [Example 78, (R,S)-3-((1-(3-Cyclohexylpropanoyl)-4-hydroxy-3,3-dimethylpiperidin-4-yl)methyl)-6-(2-fluorophenyl)pyrimidin-4(3H)-one] | 
0.5 to 5 µM | C[C@H](CC(=O)N1CCC(O)(Cn2cc(C(=O)N3CCC[C@@H]3C)c(-c3ccccc3)cc2=O)CC1)c1ccccc1 [Example 116, 1-((4-Hydroxy-1-((R)-3-phenylbutanoyl)piperidin-4-yl)methyl)-5-((S)-2-methylpyrrolidine-1-carbonyl)-4-phenylpyridin-2(1H)-one] | 
5 to 50 µM | CC(C)(CC1CCC1)C(=O)N1CCC(O)(Cn2cnc(-c3ccccc3F)cc2=O)CC1 [Example 59, 3-((1-(3-Cyclobutyl-2,2-dimethylpropanoyl)-4-hydroxypiperidin-4-yl)methyl)-6-(2-fluorophenyl)pyrimidin-4(3H)-one] | 
50 to 250 µM | CN(C)C(=O)c1cn(CC2(O)CCN(C(=O)CCC3CCOC3)CC23CCCC3)c(=O)cc1-c1ccccc1 (centres unmarked) [Example 173, 1-((10-Hydroxy-7-(3-(tetrahydrofuran-3-yl)propanoyl)-7-azaspiro[4.5]decan-10-yl)methyl)-N,N-dimethyl-6-oxo-4-phenyl-1,6-dihydropyridine-3-carboxamide] | 
< 0.5 µM | CC(C)CC(C)C(=O)N1CCC(O)(Cn2cc(C(=O)N(C)C)c(-c3ccccc3)cc2=O)C2(CCCC2)C1 (centres unmarked) [Example 197] | 
